Measured values taken from publication PMC13494812, “Towards the Targeted Protein Degradation of PRMT1” (Chemmedchem, 2024).

What was measured:
NLuc-CRBN fusion protein = target: T1, NLuc-CRBN fusion protein (Homo sapiens, UniProt Q96SW2); test: CRBN NanoBRET Target Engagement assay in live MCF-7 cells; format: cell-based; conditions: 0.5 µM tracer, 2 h, read-out: IC50, half-maximal inhibition of tracer binding to NLuc-CRBN
T1 construct: host or cells: MCF-7

[1] = PROTAC stability in cell culture media; format: in vitro ADME; conditions: read-out: t1/2 in cell culture media (converted)
Text: A SEM protecting group was employed on the glutarimide ring of CRBN ligand 6. Three CRBN‐recruiting PROTACs were synthesised by the O‐alkylation of PRMT1 ligand 4 with the corresponding linker 8 j–l to give 9 j–l which underwent a subsequent O‐alkylation with SEM‐protected CRBN ligand 12. The removal of the protecting groups was then attempted using acidic conditions. The N‐Boc and THP protecting groups on the PRMT1 ligand were removed however the SEM group on the CRBN ligand was converted to an N‐hydroxymethyl functional group. This group was removed under basic conditions to afford PROTACs J–L (Scheme 3 A). It is documented that the glutarimide ring and the phthalimide group of the CRBN ligand are susceptible to hydrolysis,[50, 51] and the stability of PROTAC L in cell culture media was investigated and found to be short (t1/2=0.9 h). Changing the functional group between the CRBN ligand and linker can affect the susceptibility of the ligand to hydrolysis.[52] PROTAC M was synthesised, which comprised a similar structure as PROTAC L, but with an amino group between the linker and CRBN ligand (Scheme 3 B).

CRBN = target: T2, CRBN (Homo sapiens, UniProt Q96SW2); test: CRBN binding of N-alkylated molecule 7 (Figure S6)
T2 construct: host or cells: MCF-7
Text: To synthesise PROTACs that recruit the CRBN E3‐ligase, PRMT1 ligand 4 underwent a Mitsunobu reaction to produce 5 which was then used for the alkylation of CRBN ligand 6.

MCF-7 cell line = test: Cytotoxicity seen in the MCF-7 degradation experiment; format: cell-based, human; conditions: MCF-7 cells, 10 μM, 24 h
KP-3 line = test: Cytotoxicity seen in the KP-3 degradation experiment; format: cell-based, human; conditions: KP-3 cells, 10 μM, 24 h
Experimental: Figure S5. VHL-recruiting PROTACs in two PDAC-derived cell lines. Western blot of PROTAC A-F in two PDAC-derived cell lines at 10 µM. HPAF-II and KP-3 cells were treated with the indicated compounds at 10 µM for 24 h and then harvested for analysis by Western blot. PROTAC E and PROTAC F were cytotoxic in the KP-3 line.
(1 picture or pasted object on this page, not shown here)

PRMT1 [2] = target: T3, PRMT1 (Homo sapiens, UniProt Q99873); test: ADMA and MMA levels by Western blot in MCF-7 cells (PRMT1 / Type I PRMT inhibition); format: cell-based; conditions: 10 μM, 24 h; for change in monomethylation of arginine (MMA): Western blot
T3 construct: endogenous in cells; host or cells: MCF-7
Text: The cells were allowed to adhere overnight.
manufacturer’s instructions.

PRMT1 [3] = target: T3, PRMT1; test: PRMT1 degradation assay by Western blot in MCF-7 cells; format: cell-based; conditions: 1 and 0.1 μM, 24 h
Text: A sensitive and selective Western blot protocol was validated to investigate the effect of PROTAC treatment on the cellular levels of PRMT1 in the MCF‐7 cell line (Figure S4, ESI†). Derived from a metastatic breast adenocarcinoma, the MCF‐7 cell line has the hormone receptor status that characterises the most frequently diagnosed subtype of breast cancer: ER‐positive, PR‐positive, HER2‐negative.[43, 44] This breast cancer subtype, and consequently the MCF‐7 cell line, are a suitable model system to predict the clinical efficacy of PRMT1 PROTACs; PRMT1 upregulation correlates with a reduction in relapse‐free survival for patients with this breast cancer subtype[6, 45] and anti‐proliferative effects have been observed in the MCF‐7 cell line following pan‐Type I PRMT inhibition.[17, 20]
Figure 3 PRMT1 and PRMT6 degradation assays with VHL‐recruiting PROTACs. […] PROTACs E–F were cytotoxic and not analysed. […]
(§1) Western Blot Cells were counted using the Vi-CELL XR cell viability analyser, as per manufactures instructions, and the desired number of cells seeded in full media in individual 10 cm plates (Corning, #430167). […]
(§2) The pellet was resuspended in RIPA buffer containing protease and phosphatase inhibitor and incubated at 4 °C for 10 minutes with rotation. […] The supernatant was transferred and the protein concentration quantified by the Direct Detect Spectrometer as per manufacturer’s instructions. […]

PRMT6 = target: T4, PRMT6 (Homo sapiens, UniProt Q96LA8); test: PRMT6 degradation assay by Western blot in MCF-7 cells; format: cell-based; conditions: 1 and 0.1 μM, 24 h
T4 construct: endogenous in cells; host or cells: MCF-7
Experimental: At 10 μM in the MCF‐7 cell line, PRMT1 degradation was not observed with any of the synthesised PROTACs (Figure 3A). PROTAC E and PROTAC F were cytotoxic and not analysed. […]. PRMT8 is expressed primarily in the brain and thus not investigated.[46]
Figure 3 PRMT1 and PRMT6 degradation assays with VHL‐recruiting PROTACs. A) PROTACs A–I at 10 μM. PROTACs E–F were cytotoxic and not analysed. MCF‐7 cells were treated with the indicated compound for 24 h and then harvested for analysis by Western blot. B) Same as A but PROTACs tested at 1 and 0.1 μM. Image representative of two independent experiments. Uncropped blots are shown in ESI†.
Figure 5 PRMT1 and PRMT6 degradation assays with CRBN‐recruiting PROTACs. A) PROTACs J–O at 10 μM. MCF‐7 cells were treated with the indicated compound for 24 h and then harvested for analysis by Western blot. B) Same as A but PROTAC N tested at 1 and 0.1 μM. […]
as §1, §2

T3 sequence (Q99873 whole entry): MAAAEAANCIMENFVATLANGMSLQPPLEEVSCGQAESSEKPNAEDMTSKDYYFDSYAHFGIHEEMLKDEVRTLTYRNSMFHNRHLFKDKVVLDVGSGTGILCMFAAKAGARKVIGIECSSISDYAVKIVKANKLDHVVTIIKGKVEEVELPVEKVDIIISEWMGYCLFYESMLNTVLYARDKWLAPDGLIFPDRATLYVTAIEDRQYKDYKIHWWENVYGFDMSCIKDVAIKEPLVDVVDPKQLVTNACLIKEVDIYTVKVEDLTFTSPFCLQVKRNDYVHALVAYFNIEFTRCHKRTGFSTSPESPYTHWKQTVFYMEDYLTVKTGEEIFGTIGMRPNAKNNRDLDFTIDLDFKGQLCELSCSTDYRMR
T1 sequence (Q16531 whole entry, the tested form may be a part): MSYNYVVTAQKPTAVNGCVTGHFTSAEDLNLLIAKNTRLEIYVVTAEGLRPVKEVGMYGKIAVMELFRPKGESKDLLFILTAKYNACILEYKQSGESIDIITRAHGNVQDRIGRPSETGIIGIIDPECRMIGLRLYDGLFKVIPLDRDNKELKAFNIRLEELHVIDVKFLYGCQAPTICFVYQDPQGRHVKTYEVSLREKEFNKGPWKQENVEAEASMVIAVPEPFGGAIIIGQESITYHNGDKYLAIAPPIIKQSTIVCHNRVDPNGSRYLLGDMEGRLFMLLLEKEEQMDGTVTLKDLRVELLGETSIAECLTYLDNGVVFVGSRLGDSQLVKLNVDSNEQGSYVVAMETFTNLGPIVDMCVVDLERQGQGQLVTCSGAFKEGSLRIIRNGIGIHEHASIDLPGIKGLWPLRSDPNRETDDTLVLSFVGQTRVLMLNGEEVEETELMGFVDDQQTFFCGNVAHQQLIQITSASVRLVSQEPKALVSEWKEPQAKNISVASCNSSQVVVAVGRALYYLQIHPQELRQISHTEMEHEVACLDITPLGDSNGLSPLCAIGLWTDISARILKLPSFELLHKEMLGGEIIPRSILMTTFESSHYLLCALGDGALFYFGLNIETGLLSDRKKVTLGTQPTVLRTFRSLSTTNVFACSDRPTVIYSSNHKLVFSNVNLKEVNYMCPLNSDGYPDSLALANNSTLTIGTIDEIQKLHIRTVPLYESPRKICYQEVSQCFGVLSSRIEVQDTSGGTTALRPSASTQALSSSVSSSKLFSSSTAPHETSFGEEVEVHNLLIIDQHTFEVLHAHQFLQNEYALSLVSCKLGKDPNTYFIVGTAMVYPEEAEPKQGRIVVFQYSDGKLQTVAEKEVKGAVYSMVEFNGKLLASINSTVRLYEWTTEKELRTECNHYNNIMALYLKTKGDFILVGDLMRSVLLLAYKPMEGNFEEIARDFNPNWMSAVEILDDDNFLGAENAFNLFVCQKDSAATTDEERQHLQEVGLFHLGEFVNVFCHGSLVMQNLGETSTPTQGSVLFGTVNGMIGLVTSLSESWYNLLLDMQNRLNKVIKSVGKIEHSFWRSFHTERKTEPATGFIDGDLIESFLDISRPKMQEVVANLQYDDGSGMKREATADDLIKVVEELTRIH
T1 sequence (Q96SW2 whole entry, the tested form may be a part): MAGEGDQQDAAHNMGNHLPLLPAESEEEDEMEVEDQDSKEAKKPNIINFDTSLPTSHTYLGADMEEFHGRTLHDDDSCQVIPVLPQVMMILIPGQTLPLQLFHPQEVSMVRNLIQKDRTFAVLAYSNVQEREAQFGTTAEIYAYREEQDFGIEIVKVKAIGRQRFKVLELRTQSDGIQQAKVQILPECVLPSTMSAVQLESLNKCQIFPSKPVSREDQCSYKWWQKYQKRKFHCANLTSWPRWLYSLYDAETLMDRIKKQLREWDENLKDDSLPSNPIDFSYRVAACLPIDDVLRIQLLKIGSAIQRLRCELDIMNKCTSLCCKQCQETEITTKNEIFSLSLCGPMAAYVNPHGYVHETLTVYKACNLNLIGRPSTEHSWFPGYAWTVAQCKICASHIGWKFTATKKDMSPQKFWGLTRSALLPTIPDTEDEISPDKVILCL
T2 sequence (Q96SW2 whole entry): as the sequence (Q96SW2 whole entry, the tested form may be a part) above
T2 sequence (Q16531 whole entry, further chain): as the sequence (Q16531 whole entry, the tested form may be a part) above
T4 sequence (Q96LA8 whole entry): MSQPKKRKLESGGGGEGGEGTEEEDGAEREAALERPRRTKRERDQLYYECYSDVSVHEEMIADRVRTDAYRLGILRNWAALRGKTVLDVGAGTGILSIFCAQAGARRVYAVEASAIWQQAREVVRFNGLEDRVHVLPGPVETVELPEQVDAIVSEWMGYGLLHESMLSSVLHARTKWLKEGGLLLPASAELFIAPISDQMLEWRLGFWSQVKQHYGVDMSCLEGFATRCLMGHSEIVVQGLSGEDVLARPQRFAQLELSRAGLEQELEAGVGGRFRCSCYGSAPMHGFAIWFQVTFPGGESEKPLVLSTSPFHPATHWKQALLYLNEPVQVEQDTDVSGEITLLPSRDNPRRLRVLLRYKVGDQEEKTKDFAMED

For CNCCN(C)Cc1c[nH]nc1-c1ccc(OCCOCCOCCOCCOCCOCCNc2cccc3c2C(=O)N(C2CCC(=O)NC2=O)C3=O)cc1 (stereo not drawn) [PROTAC M], the IC50 (NLuc-CRBN fusion protein) was 1.9 µM and the half-life [1] was 2.1 h.

In the case of CNCCN(C)Cc1c[nH]nc1-c1ccc(OCCOCCN2C(=O)CCC(N3C(=O)c4cccc(O)c4C3=O)C2=O)cc1 (stereo not drawn) [compound 7], the CRBN binding (CRBN) is reported as “does not bind CRBN”.

With CNCCN(C)Cc1c[nH]nc1-c1ccc(OCCCCCCCCCCCCCCCC(=O)N[C@H](C(=O)N2C[C@H](O)C[C@H]2C(=O)NCc2ccc(-c3scnc3C)cc2)C(C)(C)C)cc1 [PROTAC F] the cytotoxicity (MCF-7 cell line) was “cytotoxic” and the cytotoxicity (KP-3 line) was “cytotoxic”.

For CNCCN(C)Cc1c[nH]nc1-c1ccc(OCCOCCOCCOCCOCCOCCOc2cccc3c2C(=O)N(C2CCC(=O)NC2=O)C3=O)cc1 (stereo not drawn) [PROTAC L], the IC50 (NLuc-CRBN fusion protein) was over 10 µM and the half-life [1] was 0.9 h.

In the case of CNCCN(C)Cc1c[nH]nc1-c1ccc(OCCCCCCCC(=O)N[C@H](C(=O)N2C[C@H](O)C[C@H]2C(=O)NCc2ccc(-c3scnc3C)cc2)C(C)(C)C)cc1 [PROTAC C], the “change in monomethylation of arginine (MMA)” value (PRMT1 [2]) is reported as “significant increase”.

With CNCCN(C)Cc1c[nH]nc1-c1ccc(OCCCCCCNc2cccc3c2C(=O)N(C2CCC(=O)NC2=O)C3=O)cc1 (stereo not drawn) [PROTAC N] the PRMT1 degradation (PRMT1 [3]) was “neither PRMT1 nor PRMT6 degradation was observed”, the PRMT6 degradation (PRMT6) was “neither PRMT1 nor PRMT6 degradation was observed” and the “inhibition of PRMT1 activity” value (PRMT1 [2]; ADMA/MMA Western blot) was “inhibited PRMT1 activity”. The IC50 (NLuc-CRBN fusion protein) was 0.2 µM.

With CNCCN(C)Cc1c[nH]nc1-c1ccc(OCCCCCCCCCCCC(=O)N[C@H](C(=O)N2C[C@H](O)C[C@H]2C(=O)NCc2ccc(-c3scnc3C)cc2)C(C)(C)C)cc1 [PROTAC E] the cytotoxicity (MCF-7 cell line) was “cytotoxic” and the cytotoxicity (KP-3 line) was “cytotoxic”.

In the case of CNCCN(C)Cc1c[nH]nc1-c1ccc(OCCCCCCCCCC(=O)N[C@H](C(=O)N2C[C@H](O)C[C@H]2C(=O)NCc2ccc(-c3scnc3C)cc2)C(C)(C)C)cc1 [PROTAC D], the “change in monomethylation of arginine (MMA)” value (PRMT1 [2]) is reported as “significant increase”.
